Source: the supplement of paper PMC10733146

Columns and labels:
Assay in all cases: viability relative to DMSO control (fraction); higher = less drug effect (more viable cells)
Settings in all cases: 48 h
[1] = test system: primary AML patient cells (S079)
Outline: (§1)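 Using 384-well plates with compounds already plated at five concentrations, one well per concentration, 4 × 10^4 primary mononuclear tumour cells were added per well. Cells were Ficoll-isolated from blood or bone marrow or came from processed lymph node, fresh or cryopreserved. They were kept for 48 h at 37 °C and 5% CO2 in RPMI-1640 supplemented with penicillin/streptomycin, L-glutamine and human serum, and viability was read as CellTiter-Glo luminescence relative to the median of 16 inner DMSO wells.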

[2] = test system: primary MCL patient cells (S053)
Outline: as §1

[3] = test system: primary MCL patient cells (S063)
Outline: as §1

[4] = test system: primary AML patient cells (S056)
Outline: as §1

[5] = test system: primary AML patient cells (S012)
Outline: as §1

[6] = test system: primary AML patient cells (S006)
Outline: as §1

[7] = test system: primary MCL patient cells (S041)
Outline: as §1

[8] = test system: primary AML patient cells (S072)
Outline: as §1

[9] = test system: primary AML patient cells (S060)
Outline: as §1

[10] = test system: primary CLL patient cells (S031)
Outline: as §1

[11] = test system: primary AML patient cells (S009)
Outline: as §1

[12] = test system: primary ALL patient cells (S088)
Outline: as §1

[13] = test system: primary AML patient cells (S085)
Outline: as §1

[14] = test system: primary CLL patient cells (S043)
Outline: as §1

[15] = test system: primary DLBCL patient cells (S082)
Outline: as §1

[16] = test system: primary AML patient cells (S017)
Outline: as §1

[17] = test system: primary FL patient cells (S087)
Outline: as §1

[18] = test system: primary B-PLL patient cells (S016)
Outline: as §1

[19] = test system: primary AML patient cells (S071)
Outline: as §1

[20] = test system: primary BL patient cells (S005)
Outline: as §1

Q: What does the source list for `N#CC[C@H](C1CCCC1)n1cc(-c2ncnc3[nH]ccc23)cn1` [Ruxolitinib]?
A: viability ([1]; 0.024 µM): 0.979; viability ([1]; 0.12 µM): 0.845; viability ([1]; 0.6 µM): 0.808; viability ([1]; 3 µM): 0.774; viability ([1]; 15 µM): 0.724; viability ([2]; 0.024 µM): 1.03; viability ([2]; 0.12 µM): 0.928; viability ([2]; 0.6 µM): 1.02; viability ([2]; 3 µM): 1.03; viability ([2]; 15 µM): 0.831; viability ([3]; 0.024 µM): 1.02; viability ([3]; 0.12 µM): 0.939; viability ([3]; 0.6 µM): 0.975; viability ([3]; 3 µM): 0.932; viability ([3]; 15 µM): 0.875; viability ([4]; 0.024 µM): 0.954; viability ([4]; 0.12 µM): 0.894; viability ([4]; 0.6 µM): 0.814; viability ([4]; 3 µM): 0.891; viability ([4]; 15 µM): 0.69; viability ([5]; 0.024 µM): 0.973; viability ([5]; 0.12 µM): 0.973; viability ([5]; 0.6 µM): 1.03; viability ([5]; 3 µM): 0.951; viability ([5]; 15 µM): 0.846; viability ([6]; 0.024 µM): 1.04; viability ([6]; 0.12 µM): 0.921; viability ([6]; 0.6 µM): 0.963; viability ([6]; 3 µM): 0.904; viability ([6]; 15 µM): 0.656; viability ([7]; 0.024 µM): 1.02; viability ([7]; 0.12 µM): 0.972; viability ([7]; 0.6 µM): 0.997; viability ([7]; 3 µM): 1.01; viability ([7]; 15 µM): 0.952; viability ([8]; 0.024 µM): 1.04; viability ([8]; 0.12 µM): 0.925; viability ([8]; 0.6 µM): 0.873; viability ([8]; 3 µM): 0.913; viability ([8]; 15 µM): 0.883; viability ([9]; 0.024 µM): 0.992; viability ([9]; 0.12 µM): 0.932; viability ([9]; 0.6 µM): 0.924; viability ([9]; 3 µM): 0.919; viability ([9]; 15 µM): 0.896; viability ([10]; 0.024 µM): 1.06; viability ([10]; 0.12 µM): 1; viability ([10]; 0.6 µM): 1.04; viability ([10]; 3 µM): 0.896; viability ([10]; 15 µM): 0.689; viability ([11]; 0.024 µM): 1.09; viability ([11]; 0.12 µM): 1.01; viability ([11]; 0.6 µM): 0.98; viability ([11]; 3 µM): 1.02; viability ([11]; 15 µM): 0.928; viability ([12]; 0.024 µM): 0.974; viability ([12]; 0.12 µM): 0.912; viability ([12]; 0.6 µM): 0.994; viability ([12]; 3 µM): 0.986; viability ([12]; 15 µM): 0.94; viability ([13]; 0.024 µM): 1.42; viability ([13]; 0.12 µM): 0.921; viability ([13]; 0.6 µM): 0.861; viability ([13]; 3 µM): 0.806; viability ([13]; 15 µM): 0.651; viability ([14]; 0.024 µM): 0.915; viability ([14]; 0.12 µM): 1.05; viability ([14]; 0.6 µM): 0.938; viability ([14]; 3 µM): 1.05; viability ([14]; 15 µM): 0.966; viability ([15]; 0.024 µM): 1.01; viability ([15]; 0.12 µM): 0.904; viability ([15]; 0.6 µM): 1.03; viability ([15]; 3 µM): 1.04; viability ([15]; 15 µM): 0.913; viability ([16]; 0.024 µM): 1.05; viability ([16]; 0.12 µM): 1.03; viability ([16]; 0.6 µM): 1.09; viability ([16]; 3 µM): 1; viability ([16]; 15 µM): 0.907; viability ([17]; 0.024 µM): 1.02; viability ([17]; 0.12 µM): 0.929; viability ([17]; 0.6 µM): 0.942; viability ([17]; 3 µM): 0.962; viability ([17]; 15 µM): 0.871; viability ([18]; 0.024 µM): 1.16; viability ([18]; 0.12 µM): 0.98; viability ([18]; 0.6 µM): 1.08; viability ([18]; 3 µM): 0.965; viability ([18]; 15 µM): 0.894; viability ([19]; 0.024 µM): 1.01; viability ([19]; 0.12 µM): 0.988; viability ([19]; 0.6 µM): 0.956; viability ([19]; 3 µM): 0.944; viability ([19]; 15 µM): 0.744; viability ([20]; 0.024 µM): 1.01; viability ([20]; 0.12 µM): 1.18; viability ([20]; 0.6 µM): 0.974; viability ([20]; 3 µM): 1.15; viability ([20]; 15 µM): 1.03
